According to patent US20110257176A1, “NITROGEN HETEROCYCLE DERIVATIVES AS PROTEASOME MODULATORS” (INSTITUT NATIONAL DE LA SANTE ET DE LA RECHERCHE MEDICALE …, priority 2008, published 2011):

Assays:
[1] = molecular target: rabbit reticulocyte 20S proteasome, post-acid (PA) activity (Oryctolagus cuniculus, UniProt G1T235); assay: 20S proteasome post-acid (PA) activity, Z-LLE-βNA hydrolysis; format: biochemical; parameters: key to Inhibition of post-acid activity (NI): NI: No Inhibition; details: rabbit 20S proteasome; for Inhibition of post-acid activity (NI): screened at 100 μM and 50 μM; for IC50: pH 8, 37° C.
Protocol: (§1) Rabbit erythrocyte 20S proteasome was obtained from Boston Biochem, Cambridge, USA. The fluorogenic substrates Suc-LLVY-AMC, Boc-LRR-AMC and Z-LLE-βNA used to measure the proteasome activities CT-L, T-L and PA respectively were purchased from Bachem (France). Other reagents and solvents were purchased from commercial sources. Fluorescence was measured using a BMG Fluostar microplate reader.
(§2) Compounds 1-23 were tested for their potential to inhibit the CT-L, T-L and PA activities of the rabbit reticulocyte 20S proteasome. Enzyme activities were determined by monitoring the hydrolysis of the appropriate fluorogenic substrate (λexc=360, λem=465 nm for AMC substrates, and λexc=340, λem=405 nm for the βNA substrate) for 1 h at 37° C.
(§3) In the in vitro screening, each compound was tested in duplicate against the three activities, at 100 μM and 50 μM in the corresponding buffer. The buffer were (pH 8): 50 mM Tris, 150 mM NaCl, 10% (v/v) glycerol, 0.025% (w/v) SDS, and 3% (v/v) DMSO (CT-L and PA activities); 50 mM Tris, 150 mM NaCl, 10% (v/v) glycerol, and 3% (v/v) DMSO (T-L activity).
(§4) The inhibitory activity of compounds is expressed as IC50, which corresponds to the concentration of proteasome inhibitor leading to a loss of activity of 50%. The values of IC50 were calculated by fitting the experimental data to equation 1: % Inhibition=100×(1−Vi/V0)=100 [I]0/(IC50+[I]0), or equation 2: % Inhibition=100 [I]0^nH/(IC50^nH+[I]0^nH), where Vi is the initial rate in the presence of the inhibitor, V0 is the initial rate in the absence of the inhibitor, [I]0 is the inhibitor concentration, nH is the Hill number (FIG. 1).

[2] = molecular target: T1, rabbit reticulocyte 20S proteasome, chymotrypsin-like (CT-L) activity (UniProt G1T4Q9); assay: 20S proteasome chymotrypsin-like (CT-L) activity, Suc-LLVY-AMC hydrolysis; format: biochemical; details: rabbit 20S proteasome, pH 8, 37° C.
T1 construct: IC50 on chymotrypsin-like activity; other: rabbit 20S proteasome, pH 8, 37° C; Rabbit erythrocyte 20S proteasome was obtained from Boston Biochem, Cambridge, USA
Protocol: as §1, §2, §3, §4

[3] = molecular target: T2, human calpain-I (Homo sapiens, UniProt P07384); assay: Selectivity: inhibition of calpain-I; format: biochemical; details: 100 μM compound
T2 sequence (P07384 1-714): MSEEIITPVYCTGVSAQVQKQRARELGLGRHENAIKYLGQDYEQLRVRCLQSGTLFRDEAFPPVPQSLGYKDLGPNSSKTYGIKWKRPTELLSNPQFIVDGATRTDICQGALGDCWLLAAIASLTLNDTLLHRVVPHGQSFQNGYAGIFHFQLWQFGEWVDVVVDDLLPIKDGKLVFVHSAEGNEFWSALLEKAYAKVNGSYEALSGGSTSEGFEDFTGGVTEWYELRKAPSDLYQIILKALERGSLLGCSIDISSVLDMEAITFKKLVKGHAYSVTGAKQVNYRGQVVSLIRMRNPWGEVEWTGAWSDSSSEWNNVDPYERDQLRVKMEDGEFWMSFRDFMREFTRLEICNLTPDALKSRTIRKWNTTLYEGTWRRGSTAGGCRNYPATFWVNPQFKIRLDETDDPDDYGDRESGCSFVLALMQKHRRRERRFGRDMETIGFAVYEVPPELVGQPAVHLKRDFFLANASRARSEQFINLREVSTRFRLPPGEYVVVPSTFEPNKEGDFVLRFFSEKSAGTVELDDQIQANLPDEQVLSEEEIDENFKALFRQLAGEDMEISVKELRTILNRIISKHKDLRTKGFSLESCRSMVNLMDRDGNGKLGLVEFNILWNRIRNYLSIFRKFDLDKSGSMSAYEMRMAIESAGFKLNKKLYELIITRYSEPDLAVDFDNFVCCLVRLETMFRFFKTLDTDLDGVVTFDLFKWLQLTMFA
T2 sequence (P04632 1-268 partner): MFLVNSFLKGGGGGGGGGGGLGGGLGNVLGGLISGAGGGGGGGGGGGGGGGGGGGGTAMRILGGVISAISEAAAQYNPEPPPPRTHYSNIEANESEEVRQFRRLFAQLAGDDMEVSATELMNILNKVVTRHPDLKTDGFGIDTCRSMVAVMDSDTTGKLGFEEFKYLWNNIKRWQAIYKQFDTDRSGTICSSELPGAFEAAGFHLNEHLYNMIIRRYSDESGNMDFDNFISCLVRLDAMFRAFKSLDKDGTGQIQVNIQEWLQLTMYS

[4] = test system: rabbit reticulocyte 20S proteasome, trypsin-like (T-L) activity; assay: 20S proteasome trypsin-like (T-L) activity, Boc-LRR-AMC hydrolysis; format: biochemical; parameters: key to Inhibition of trypsin-like activity (NI): NI: No Inhibition; details: rabbit 20S proteasome; for Inhibition of trypsin-like activity (NI): screened at 100 μM and 50 μM
Protocol: as §1, §2, §3, §4

[5] = molecular target: T3, human erythrocyte 20S proteasome, trypsin-like (T-L) activity (Homo sapiens, UniProt Q99436); assay: 20S proteasome trypsin-like (T-L) activity, Boc-LRR-AMC hydrolysis; format: biochemical; parameters: key to Inhibition of trypsin-like activity (NI): NI: No Inhibition; details: for IC50: pH 7.5; for inhibition at 100 µM: 100 μM inhibitor, read-out: % inhibition (inhibitor concentration) on trypsin-like activity
T3 construct: three activities of human erythrocyte 20S proteasome; from tissue; host or cells: human erythrocytes
Protocol: as §1, §4
(§5) Compounds 24, 25 and 31-35 were tested in duplicate against three activities of human erythrocyte 20S proteasome at 100 and 50 μM in the appropriate buffer (pH 7.5): 20 mM Tris HCl, 10% (v/v) glycerol, 0.01% (w/v) SDS and 2% DMSO (CT-L and PA activities); 20 mM Tris HCl, 10% (v/v) glycerol, and 2% DMSO (T-L activity). The inhibitory activities were analyzed as described above for compounds 1-23.

[6] = molecular target: T4, human erythrocyte 20S proteasome, post-acid (PA) activity (Homo sapiens, UniProt P28072); assay: 20S proteasome post-acid (PA) activity, Z-LLE-βNA hydrolysis; format: biochemical; parameters: key: NI: No Inhibition; details: screened at 100 and 50 μM
T4 construct: three activities of human erythrocyte 20S proteasome; from tissue; host or cells: human erythrocytes
Protocol: as §1, §4, §5

[7] = molecular target: T5, human erythrocyte 20S proteasome, chymotrypsin-like (CT-L) activity (Homo sapiens, UniProt P28074); assay: 20S proteasome chymotrypsin-like (CT-L) activity, Suc-LLVY-AMC hydrolysis; format: biochemical; details: for IC50: pH 7.5
T5 construct: three activities of human erythrocyte 20S proteasome; from tissue; host or cells: human erythrocytes
Protocol: as §1, §4, §5

[8] = molecular target: T6, rabbit reticulocyte 20S proteasome, chymotrypsin-like (CT-L) activity (Oryctolagus cuniculus, UniProt G1T4Q9); assay: as above; format: biochemical; details: rabbit 20S proteasome, pH 8, 37° C.
T6 construct: IC50 on chymotrypsin-like activity; other: rabbit 20S proteasome, pH 8, 37° C; Rabbit erythrocyte 20S proteasome was obtained from Boston Biochem, Cambridge, USA
T6 sequence (G1T4Q9 1-263): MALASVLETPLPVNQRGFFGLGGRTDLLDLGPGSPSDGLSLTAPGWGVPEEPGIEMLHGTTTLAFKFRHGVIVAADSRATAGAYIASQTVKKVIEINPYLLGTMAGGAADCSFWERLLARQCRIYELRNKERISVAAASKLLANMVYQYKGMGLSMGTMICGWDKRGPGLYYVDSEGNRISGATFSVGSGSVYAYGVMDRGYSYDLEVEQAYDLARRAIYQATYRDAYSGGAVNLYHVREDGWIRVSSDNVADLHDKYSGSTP
Protocol: as §1, §2, §3, §4

rabbit reticulocyte 20S proteasome, post-acid (PA) activity, sequence (G1T235 entry or part of it): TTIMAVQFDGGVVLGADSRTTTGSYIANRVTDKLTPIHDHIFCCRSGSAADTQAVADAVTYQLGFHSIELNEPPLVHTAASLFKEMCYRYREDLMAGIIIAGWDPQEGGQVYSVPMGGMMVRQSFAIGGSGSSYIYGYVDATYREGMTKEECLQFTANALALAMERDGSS

SMILES | Inhibition of post-acid activity (NI) [1] | IC50 [2] [µM] | Inhibition of trypsin-like activity (NI) [4] | also measured
COc1ccc(OCC(=O)N(Cc2nc(-c3ccccc3)no2)C(C)C)cc1 [Compound 6] | NI | 1.02 ± 0.16 | – | Inhibition of human calpain-I (in words) [3]: no inhibition
COc1ccc(-c2noc(CN(C(=O)COc3ccc(Br)cc3)C(C)C)n2)cc1 [Compound 12] | NI | 0.1 ± 0.01 | NI | –
COc1ccc(-c2noc(CN(C(=O)COc3ccc(Br)cc3)C(C)C)n2)cc1OC [Compound 25] | – | – | – | melting point: 135 °C; Inhibition of trypsin-like activity (NI) ([5]; screened at 100 and 50 μM): NI; Inhibition of post-acid activity (NI) [6]: NI; IC50 [7]: 0.037 ± 0.003 µM
COc1ccc(C(=O)NCCc2nnc(SCC(=O)Nc3cc(C)ccc3OC)n2C)cc1 [Compound 22] | – | – | – | inhibition at 100 µM ([1]; 100 μM inhibitor, read-out: % inhibition (inhibitor concentration) on post-acid activity): 16%; % inhibition (inhibitor concentration) on trypsin-like activity ([4]; 100 μM inhibitor): 22% (100 μM); IC50 [8]: 80 µM
Cc1cccc(-c2noc(CN(C(=O)COc3ccc(Br)cc3)C(C)C)n2)c1 [Compound 4] | NI | 0.51 ± 0.07 | – | % inhibition (inhibitor concentration) on trypsin-like activity ([4]; 50 μM inhibitor): 7.3%
CC(C)N(Cc1nc(-c2ccc(Oc3ccccc3)cc2)no1)C(=O)COc1ccc(Br)cc1 [Compound 24] | – | – | – | melting point: 87 °C; IC50 [5]: 10.8 ± 0.4 µM; Inhibition of post-acid activity (NI) [6]: NI; IC50 [7]: 0.61 ± 0.03 µM
CCc1ccc(OCC(=O)N(Cc2nc(-c3ccc(OC)cc3)no2)C(C)C)cc1 [Compound 7] | NI | 0.09 ± 0.006 | NI | –
CC(C)N(Cc1nc(-c2cccc3ccccc23)no1)C(=O)COc1ccc(Br)cc1 [Compound 32] | – | – | – | melting point: 114 °C; IC50 [5]: 29.1 ± 0.9 µM; Inhibition of post-acid activity (NI) [6]: NI; inhibition at 100 µM ([7]; 100 μM inhibitor, read-out: % inhibition (inhibitor concentration) on chymotrypsin-like activity): 30%
CC(C)N(Cc1nc(CN2CCCCC2)no1)C(=O)COc1ccc(Br)cc1 [Compound 35] | – | – | – | melting point: 144 °C; inhibition at 100 µM [5]: 47%; Inhibition of post-acid activity (NI) [6]: NI; IC50 [7]: 37.3 ± 4.2 µM
COc1ccc(OCC(=O)N(Cc2nc(-c3cccc(C)c3)no2)C(C)C)cc1 [Compound 5] | NI | 0.91 ± 0.12 | NI | –
COc1ccc(Cl)cc1NC(=O)CSc1nnc(C(CO)NC(=O)c2ccccc2)n1C (stereo not drawn) [Compound 23] | NI | – | – | % inhibition (inhibitor concentration) on trypsin-like activity ([4]; 100 μM inhibitor): 50% (100 μM); IC50 [8]: 85 µM
CCN(CC)Cc1noc(CN(C(=O)COc2ccc(Br)cc2)C(C)C)n1 [Compound 34] | – | – | – | melting point: 168 °C; inhibition at 100 µM [5]: 28%; Inhibition of post-acid activity (NI) [6]: NI; IC50 [7]: 30.9 ± 2.3 µM
C=CCN(Cc1nc(-c2ccccc2)no1)C(=O)COc1ccc(C)cc1 [Compound 18] | NI | 0.33 ± 0.03 | NI | –
COc1ccc(-c2noc(CN(C(=O)COc3ccccc3)C(C)C)n2)cc1 [Compound 9] | NI | 3.96 ± 0.75 | NI | inhibition at 100 µM [3]: ≤ 30%
COc1ccc(-c2noc(CN(C(=O)COc3ccc(C)cc3)C(C)C)n2)cc1 [Compound 10] | NI | 0.71 ± 0.04 | NI | –
CCc1ccc(OCC(=O)N(Cc2nc(-c3cccc(C)c3)no2)C(C)C)cc1 [Compound 3] | NI | 0.17 ± 0.01 | NI | –
CCOc1ccc(C(=O)N(Cc2nc(-c3ccc(OC)cc3)no2)C(C)C)cc1 [Compound 20] | NI | – | – | Activation × of trypsin-like activity ([4]; 50 μM compound, fold activation): Activation × 3.4 (50 μM); IC50 [8]: ~18 µM
CC(C)c1noc(CN(C(=O)COc2ccc(Br)cc2)C(C)C)n1 [Compound 28] | – | 12.3 ± 0.3 | NI | IC50 [1]: 45 ± 1 µM
C=CCN(Cc1nc(-c2ccc(OC)cc2)no1)C(=O)COc1ccccc1 [Compound 8] | NI | 1.66 ± 0.12 | NI | inhibition at 100 µM [3]: ≤ 30%
Cc1noc(CN(C(=O)COc2ccc(Br)cc2)C(C)C)n1 [Compound 27] | – | 12.3 ± 0.3 | NI | IC50 [1]: 76 ± 2 µM
CC(C)N(Cc1nc(C(C)(C)C)no1)C(=O)COc1ccc(Br)cc1 [Compound 29] | – | 81 ± 4 | NI | IC50 [1]: 28 ± 3 µM
COc1ccc(-c2noc(CN(C(=O)C(C)Oc3ccccc3)C(C)C)n2)cc1 (stereo not drawn) [Compound 14] | NI | 8.05 ± 0.83 | NI | –
CC(C)N(Cc1nc(CN2CCOCC2)no1)C(=O)COc1ccc(Br)cc1 [Compound 33] | – | – | – | melting point: 110 °C; inhibition at 100 µM [5]: 42%; Inhibition of post-acid activity (NI) [6]: NI; IC50 [7]: 78.6 ± 1.6 µM
Cc1cccc(OCC(=O)N(Cc2nc(-c3cccc(C)c3)no2)C(C)C)c1 [Compound 15] | NI | ~27 | NI | –
COc1ccc(OCC(=O)N(Cc2nc(-c3ccc(C)cc3)no2)C(C)C)cc1 [Compound 16] | NI | 2.49 ± 0.91 | NI | Inhibition of human calpain-I (in words) [3]: no inhibition
